Experiment [1] concerns the target T1, CYP11B1 (steroid 11 β-hydroxylase) (Homo sapiens, UniProt P15538).
T1 construct: the NCI-H295R cells have CYP11B1 (steroid 11 β-hydroxylase); host or cells: NCI-H295R
T1 sequence (P15538 25-503): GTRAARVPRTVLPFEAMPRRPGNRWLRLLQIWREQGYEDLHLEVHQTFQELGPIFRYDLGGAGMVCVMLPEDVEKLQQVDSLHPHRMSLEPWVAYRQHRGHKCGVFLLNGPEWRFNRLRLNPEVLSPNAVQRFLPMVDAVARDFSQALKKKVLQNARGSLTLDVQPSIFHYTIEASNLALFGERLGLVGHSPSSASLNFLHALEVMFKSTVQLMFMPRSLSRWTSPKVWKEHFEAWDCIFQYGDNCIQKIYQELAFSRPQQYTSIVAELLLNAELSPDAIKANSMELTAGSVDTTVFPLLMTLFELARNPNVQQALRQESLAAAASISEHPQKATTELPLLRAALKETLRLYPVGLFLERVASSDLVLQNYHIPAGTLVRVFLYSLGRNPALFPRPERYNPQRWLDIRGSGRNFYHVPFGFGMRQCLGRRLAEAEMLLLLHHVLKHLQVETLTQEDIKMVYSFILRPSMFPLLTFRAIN
Put plainly: Cortisol cell secretion in NCI-H295R cells (in vitro inhibitory activity for CYP11B1). The class given is cell-based. Particulars: compound at 1 μM. An excerpt: The in vitro inhibitory activities for CYP11B1 can be determined by the following assay.
The cell line NCI-H295R was originally isolated from an adrenocortical carcinoma and has been characterized in the literature through the stimulable secretion of steroid hormones and the presence of the enzymes essential for steroidogenesis. Thus, the NCI-H295R cells have CYP11B1 (steroid 11 β-hydroxylase). The cells show the physiological property of zonally undifferentiated human fetal adrenocortical cells which, however, have the capacity to produce the steroid hormones which are formed in the three, phenotypically distinguishable zones in the adult adrenal cortex.
The NCI-H295R cells (American Type Culture Collection, ATCC, Rockville, Md., USA) are grown in Dulbeoco's Modified Eagle'Ham F-12 Medium (DME/F12), which has been supplemented with Ulroser SF Serum (Soprachem, Cergy-Saint-Christophe, France), insulin, transferrin, selenite (I-T-S, Becton Dickinson Biosiences, Franklin lakes, N.J., USA) and antibiotics in 75 cm^2 cell culture vessels at 37° C. and in a 95% air-5% carbon dioxide atmosphere. The cells are subsequently transferred for colony formation into a 24-well incubation vessel. They are cultivated there in DME/F12 medium, which is now supplemented with 0.1% bovine serum instead of Ultroser SF for 24 hours. The experiment is initiated by cultivating the cells in DME/F12 medium which is supplemented with 0.1% bovine serum albumin and test compound, in the presence or absence of cell stimulants, for 72 hours. The test substance is added in a concentration range from 0.2 nanomolar to […]. Cell stimulants which can be used are angiotensin II ([…] or 100 nanomolar), potassium ions (16 millimolar), forskolin (10 micromolar) or a combination of two stimulants.
The excretion of aldosterone, cortisol, corticosterone and estradiol/estrone into the culture medium can be detected and quantified by commercially available, specific monoclonal antibodies in radioimmunoassays in accordance with the manufacturer's instructions.
(§1) Inhibition of the release of certain steroids can be used as a measure of the respective enzyme inhibition by the added test compounds. The dose-dependent inhibition of enzymatic activity by a compound is calculated by means of an inhibition plot which is characterized by an IC50.
The inhibition activity of CYP11B1 production can also be expressed in percentage inhibition (% inhibition) at a given concentration (e.g. % inhibition at 1 μM), which is the cortisol level when cell is treated with the given concentration of a compound of the invention (e.g. concentration of 1 μM) versus the cortisol excretion when cell is free of the compound of the invention. % inhibition cortisol production=[(Y′−X′)/Y′]×100 wherein X′ is the level of cortisol when the cell is treated with a compound of Formula I; and Y′ is the level of cortisol when the cell is free of compound of Formula I.

Experiment [2] concerns the target T2, aldosterone synthase (Homo sapiens, UniProt P19099).
T2 construct: host or cells: NCI-H295R
T2 sequence (P19099 25-503): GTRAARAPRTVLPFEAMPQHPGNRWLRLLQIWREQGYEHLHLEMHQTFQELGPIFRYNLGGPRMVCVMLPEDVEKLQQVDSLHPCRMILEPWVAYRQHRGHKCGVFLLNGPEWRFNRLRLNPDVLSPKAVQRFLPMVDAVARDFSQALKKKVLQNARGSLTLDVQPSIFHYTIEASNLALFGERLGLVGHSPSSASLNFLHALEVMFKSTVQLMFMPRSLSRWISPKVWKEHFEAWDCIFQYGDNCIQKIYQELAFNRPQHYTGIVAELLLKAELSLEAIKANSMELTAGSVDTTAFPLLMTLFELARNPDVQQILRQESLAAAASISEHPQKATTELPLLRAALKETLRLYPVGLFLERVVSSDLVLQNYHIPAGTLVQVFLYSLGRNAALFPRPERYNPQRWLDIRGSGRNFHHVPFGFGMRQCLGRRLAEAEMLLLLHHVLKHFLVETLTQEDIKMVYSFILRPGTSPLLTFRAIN
Put plainly: Aldosterone cell secretion in Ang II-stimulated NCI-H295R cells (SPA with anti-aldosterone antibody). The experiment is classed as cell-based. The settings on record: human adrenocortical carcinoma NCI-H295R cells, 1 μM Ang II, 24 h.
Text: In particular, the aldosterone synthase inhibitory activities in vitro can be determined by the following assay.
Human adrenocortical carcinoma NCI-H295R cell line was obtained from American Type Culture Collection (Manassas, Va.). Insulin/transferrin/selenium (ITS)-A supplement (100×), DMEM/F-12, antibiotic/antimycotic (100×), and fetal bovine serum (FBS) were purchased from Invitrogen (Carlsbad, Calif.). Anti-mouse PVT scintillation proximity assay (SPA) beads and NBS 96-well plates were obtained from GE Health Sciences (Piscataway, N.J.) and Corning (Acton, Mass.), respectively. Solid black 96-well flat bottom plates were purchased from Costar (Corning, N.Y.). Aldosterone and angiotensin (Ang II) were purchased from Sigma (St. Louis, Mo.). D-[1,2,6,7-^3H(N)]aldosterone was acquired from PerkinElmer (Boston, Mass.). Nu-serum was a product of BD Biosciences (Franklin Lakes, N.J.).
On the following day, cells are rinsed with 100 μL of phosphate-buffered saline (PBS) and incubated with 100 μL of treatment medium containing 1 μM Ang II and a compound at different concentrations in quadruplicate wells at 37° C. for 24 h. At the end of incubation, 50 μL of medium is withdrawn from each well for measurement of aldosterone production by an SPA using mouse anti-aldosterone monoclonal antibodies.
Measurement of aldosterone activity can also be performed using a 96-well plate format. […] Anti-mouse PVT SPA beads (50 μL) are then added to each well and incubated overnight at room temperature prior to counting in a Microbeta plate counter. The amount of aldosterone in each sample is calculated by comparing with a standard curve generated using known quantities of the hormone.
as §1
The inhibition plot is calculated by fitting a 4-parameter logistic function to the raw data points using the least squares method. The equation of the 4-parameter logistic function is calculated as follows: Y=(d−a)/((1+(x/c)b))+a, where: a=minimum data level, b=gradient, I […], d=maximum data level, x=inhibitor concentration.

SMILES strings stand for the structures.

Turning to `CCS(=O)(=O)N[C@H](c1cncc(-c2ccc(C#N)c(Cl)c2)c1)C1CC1` [(S)-N-((5-(3-chloro-4-cyanophenyl)pyridin-3-yl)(cyclopropyl)methyl)ethanesulfonamide], the inhibition at 1 µM in experiment [1] (NCI-H295R) amounted to 38%. In experiment [2], this compound displayed an IC50 of 24 nM.

Consider `CCS(=O)(=O)NC(c1cncc(-c2ccc(C#N)c(OC)c2)c1)C1CC1` (single isomer, unassigned) [N-(5-(4-cyano-3-methoxyphenyl)pyridin-3-yl)(cyclopropyl)methyl)ethanesulfonamide], for which, in experiment [1] (NCI-H295R), the inhibition at 1 µM amounted to 25%. Further, the IC50 is 111 nM in experiment [2] (Enantiomer 1) and 41 nM in experiment [2] (Enantiomer 2).

For the compound `CCS(=O)(=O)NCc1cncc(-c2nc3ccc(Cl)cc3n2C)c1` [N-(5-(6-chloro-1-methyl-1H-benzo[d]imidazol-2-yl)pyridin-3-yl)methyl)ethanesulfonamide], the inhibition at 1 µM in experiment [1] (NCI-H295R) was 24%. This compound showed an IC50 in experiment [2] of 97 nM.

As to `CCS(=O)(=O)Nc1cncc(-c2ccc(C#N)c(OC)c2)c1` [N-(5-(4-cyano-3-methoxyphenyl)pyridin-3-yl)ethanesulfonamide], in experiment [1] (NCI-H295R), the inhibition at 1 µM amounted to 38%. In addition, the IC50 in experiment [2] stood at 33 nM.

Turning to `CCS(=O)(=O)NC(C)c1cncc(-c2ccc(C#N)c(OC)c2)c1` (single isomer, unassigned) [N-(1-(5-(4-cyano-3-methoxyphenyl)pyridin-3-yl)ethyl)ethanesulfonamide], the inhibition at 1 µM in experiment [1] (NCI-H295R) stood at 38%. The IC50 in experiment [2] (Enantiomer 1) came to 64 nM; in experiment [2] (Enantiomer 2), 140 nM.

With `CCS(=O)(=O)N(CCO)C(c1cncc(-c2ccc(C#N)c(Cl)c2)c1)C1CC1` (stereo not drawn) [Ethanesulfonic acid {[5-(3-chloro-4-cyano-phenyl)-pyridin-3-yl]-cyclopropyl-methyl}-(2-hydroxy-ethyl)-amide], the inhibition at 1 µM in experiment [1] (NCI-H295R) is 51%. In experiment [2], this compound gave an IC50 of 20 nM.

As to `CCS(=O)(=O)NC(c1cncc(-c2ccc(Cl)cc2)c1)C1CC1` (stereo not drawn) [N-((5-(4-chlorophenyl)pyridin-3-yl)(cyclopropyl)methyl)-ethanesulfonamide], the inhibition at 1 µM in experiment [1] (NCI-H295R) turned out to be 31%. In experiment [2], this compound yielded an IC50 of 42 nM.

As to `CCS(=O)(=O)NCc1cncc(-c2cc3cnc(Cl)cc3n2C)c1` [Ethanesulfonic acid [5-(6-chloro-1-methyl-1H-pyrrolo[3,2-c]pyridin-2-yl)-pyridin-3-ylmethyl]-amide], the inhibition at 1 µM in experiment [1] is 15%. The compound also came in with an IC50 in experiment [2] of 165 nM.

Take `CCS(=O)(=O)NCc1cncc(-c2cc3ccc(Cl)nc3n2C)c1` [Ethanesulfonic acid [5-(6-chloro-1-methyl-1H-pyrrolo[2,3-b]pyridin-2-yl)-pyridin-3-ylmethyl]-amide]: in experiment [1], the inhibition at 1 µM was determined as 40%. Inhibition in experiment [2] was half-maximal at 8 nM (IC50).

As for `CCS(=O)(=O)NC(C)(C)c1cncc(-c2ccc(C#N)c(Cl)c2)c1` [N-(2-(5-(3-chloro-4-cyanophenyl)pyridin-3-yl)propan-2-yl)ethanesulfonamide], in experiment [1] (NCI-H295R), the inhibition at 1 µM stood at 66%. For the same compound, the IC50 in experiment [2] worked out at 99 nM.

Turning to `CCS(=O)(=O)N(CC(C)C)C(c1cncc(-c2ccc(C#N)c(Cl)c2)c1)C1CC1` (stereo not drawn) [Ethanesulfonic acid {[5-(3-chloro-4-cyano-phenyl)-pyridin-3-yl]-cyclopropyl-methyl}-isobutyl-amide], the inhibition at 1 µM in experiment [1] (NCI-H295R) worked out at 35%. The same compound returned a half-inhibitory concentration (IC50) in experiment [2] of 98 nM.

`COc1cc(-c2cncc(CNS(C)(=O)=O)c2)ccc1C#N` [N-((5-(4-cyano-3-methoxyphenyl)pyridin-3-yl)methyl)methane-sulfonamide]: the inhibition at 1 µM in experiment [1] (NCI-H295R) was 40%. Also, the IC50 in experiment [2] came out at 85 nM.

For `CCS(=O)(=O)NC(c1cncc(-c2ccc(OC(F)(F)F)cc2)c1)C1CC1` (stereo not drawn) [N-(cyclopropyl(5-(4-(trifluoromethoxy)phenyl)pyridin-3-yl)methyl)ethanesulfonamide], in experiment [1] (NCI-H295R), the inhibition at 1 µM was found to be 20%. This compound displayed an IC50 in experiment [2] of 110 nM.

`CCS(=O)(=O)NC1CC1c1cncc(-c2cccc(Cl)c2Cl)c1` (stereo not drawn) [N-(2-(5-(2,3-dichlorophenyl)pyridin-3-yl)cyclopropyl)ethane-sulfonamide]: the inhibition at 1 µM in experiment [1] (NCI-H295R) came out at 75%. Moreover, the IC50 in experiment [2] was found to be 3 nM.

The inhibition is the relative decrease from the control value, in per cent. For orientation: IC50 means the point on the concentration scale where inhibition reaches its midpoint. Higher therefore signals lower potency.

The values are drawn from US8809545B2, “Aryl pyridine as aldosterone synthase inhibitors” (Novartis AG, priority 2009, dated 2014).
